The record followed here is ChEMBL document CHEMBL3886657, “Imidazopyridin-2-one derivatives” (2016).

The target of this assay is Metabotropic glutamate receptor 2 (Homo sapiens, UniProt Q14416). As to the kind of experiment: [35S]-GTPγS Assay: The stimulation of [35S]-GTPγS binding is a common functional assay to monitor Gαi-coupled receptor in native and recombinant receptor membrane preparation. Membrane from cells stably expressing hmGlu2 CHO-K1 (50 μg) are incubated in a 96 well plate for 1 hour in the presence of GTPγS35 (0.05 nM), GDP (5 μM) and compounds. The reaction is stopped by rapid filtration over Unifilter GF/B plate (Packard, Bioscience, Meriden Conn.) using a 96-well cell harvester (Brandel Gaithersburg, Md.). The filter plates are counted using Topcount counter (Packard, Bioscience, Meriden Conn., USA). When compounds are evaluated as potentiators they are tested in the presence of glutamate (1 μM). A general note: GTPγS is a poorly hydrolysed GTP analogue; its binding reports G protein activation.
Chain of Metabotropic glutamate receptor 2 (Q14416 whole entry): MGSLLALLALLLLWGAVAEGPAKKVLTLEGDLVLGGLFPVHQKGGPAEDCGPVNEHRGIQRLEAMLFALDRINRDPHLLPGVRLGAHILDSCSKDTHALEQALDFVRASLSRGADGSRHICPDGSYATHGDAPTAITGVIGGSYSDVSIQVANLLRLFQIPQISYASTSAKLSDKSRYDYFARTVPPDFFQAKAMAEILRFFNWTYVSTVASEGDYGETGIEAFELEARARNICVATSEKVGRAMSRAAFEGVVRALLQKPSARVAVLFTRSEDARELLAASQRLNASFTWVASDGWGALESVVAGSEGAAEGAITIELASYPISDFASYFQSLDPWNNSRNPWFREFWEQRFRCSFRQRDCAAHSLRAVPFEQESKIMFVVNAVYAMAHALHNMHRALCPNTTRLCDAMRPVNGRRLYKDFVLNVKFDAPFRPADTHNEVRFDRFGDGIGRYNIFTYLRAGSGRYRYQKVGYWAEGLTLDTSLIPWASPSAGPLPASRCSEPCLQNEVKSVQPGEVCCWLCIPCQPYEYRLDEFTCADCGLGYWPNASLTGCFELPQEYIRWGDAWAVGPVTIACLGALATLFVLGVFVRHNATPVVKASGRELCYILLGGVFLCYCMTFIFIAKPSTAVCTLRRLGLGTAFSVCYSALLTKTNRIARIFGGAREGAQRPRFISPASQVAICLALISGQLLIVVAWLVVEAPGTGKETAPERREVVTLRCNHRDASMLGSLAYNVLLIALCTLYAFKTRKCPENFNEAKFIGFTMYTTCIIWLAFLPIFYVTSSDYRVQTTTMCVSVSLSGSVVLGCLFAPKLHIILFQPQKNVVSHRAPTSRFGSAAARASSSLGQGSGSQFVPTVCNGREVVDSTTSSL

In the case of `CC1C(c2ccc3c(n2)N(C)S(=O)(=O)N3CC2CC2(F)F)C1C(C)(C)O` (configuration not stated), the EC50 worked out at 40.6 nM.
With `Cn1c(=O)n(CC(C)(C)C)c2ccc(C3=CC4CCC3CN4C(=O)c3cccnc3)nc21` (configuration not stated), the half-maximal effective concentration (EC50) was 299 nM.
The figure for `CN1c2nc(C3=CC4CN(C(=O)C(C)(C)O)CC4C3)ccc2N(CC2CC2(F)F)S1(=O)=O` (configuration not stated) is 88.6 nM; for `Cn1c(=O)n(CC(C)(C)C)c2ccc(C3=CC4CCC3CN4C(=O)Cn3cncn3)nc21` (configuration not stated) it is 115 nM; for `Cn1c(=O)n(CC(C)(C)C)c2ccc(C3=CC4CN(C(=O)C5(O)CCC5)CC4C3)nc21` (configuration not stated) it is 51.4 nM.
Take `Cn1c(=O)n(CC(C)(C)C)c2ccc(C3=CC4CN(C(=O)c5ncco5)CC4C3)nc21` (configuration not stated): the EC50 was 54.7 nM.
The same measure for `Cn1c(=O)n(CC(C)(C)C)c2ccc(C3=CC4CCC3CN4C(=O)c3csnn3)nc21` (configuration not stated): 69.3 nM.
Regarding `Cn1c(=O)n(CC(C)(C)C)c2ccc(C3=CC4CCC3CN4C(=O)C3CC3)nc21` (configuration not stated), the EC50 came to 215 nM.
Take `Cn1c(=O)n(CC(C)(C)C)c2ccc(C3=CC4CCC3CN4C(=O)c3ncco3)nc21` (configuration not stated): the EC50 came to 17.9 nM.
The same measure for `Cn1c(=O)n(CC2CC2(F)F)c2ccc(C3=CC4CCC3CN4C(=O)c3ccon3)nc21` (configuration not stated): 26.6 nM; for `Cn1c(=O)n(CC(C)(C)C)c2ccc(C3=CC4CN(C(=O)CO)CC4C3)nc21` (configuration not stated): 2820 nM; for `Cn1c(=O)n(CC2CC2(F)F)c2ccc(C3=CC4CN(C(=O)c5ncco5)CC4C3)nc21` (configuration not stated): 248 nM.

By EC50 is commonly meant the concentration giving half of the maximal effect.
